{"source": "patent US20240398893A1", "about": "“ANTI-CORONAVIRUS POLYPEPTIDE AS WELL AS DERIVATIVE AND APPLICATION THEREOF” (priority 2021, published 2024)", "key": {"[1]": {"tested_on": "pseudovirus of the SARS-COV-2 prototype"}, "[2]": {"settings": "during purification process of solid-phase synthesis"}}, "data": [{"compound": "CC[C@H](C)[C@H](NC(=O)CNC(=O)[C@H](CO)NC(=O)[C@@H](NC(=O)[C@H](CC(=O)O)NC(=O)CNC(=O)[C@H](Cc1ccccc1)NC(=O)[C@H](CCCCN)NC(=O)[C@@H](N)C(C)C)[C@@H](C)CC)C(=O)N[C@@H](CC(N)=O)C(=O)N[C@@H](C)C(=O)N[C@@H](CO)C(=O)N[C@H](C(=O)N[C@H](C(=O)N[C@@H](CC(N)=O)C(=O)N[C@H](C(=O)N[C@@H](CCCCN)C(=O)N[C@@H](CCC(=O)O)C(=O)N[C@@H](CCC(=O)O)C(=O)N[C@H](C(=O)N[C@@H](CC(=O)O)C(=O)N[C@@H](CCCNC(=N)N)C(=O)N[C@@H](CC(C)C)C(=O)N[C@@H](Cc1ccc(O)cc1)C(=O)N[C@@H](CCC(=O)O)C(=O)N[C@H](C(=O)N[C@H](C(=O)N[C@@H](CCCCN)C(=O)N[C@@H](CC(N)=O)C(=O)N[C@@H](CC(C)C)C(=O)N[C@@H](CC(N)=O)C(=O)N[C@@H](CCC(=O)O)C(=O)N[C@@H](CO)C(=O)N[C@@H](CC(C)C)C(=O)N[C@H](C(=O)N[C@@H](CC(=O)O)C(=O)N[C@@H](CC(C)C)C(=O)N[C@@H](CCC(N)=O)C(=O)N[C@@H](CCC(=O)O)C(=O)N[C@@H](CC(C)C)C(=O)O)[C@@H](C)CC)C(C)C)C(C)C)[C@@H](C)CC)[C@@H](C)CC)C(C)C)C(C)C", "note": "[P3-3]", "values": [{"measurement": "EC50", "setting": "[1]", "result": 501, "unit": "nM"}]}, {"compound": "DLGDISGINASVVNIQKEIDRLNEVAKNLNESLIDLQELGSGSGC(CH2CONH(PEG)4CH2COOChol)-NH2 [P3-2-GS-PEG-Chol-1]", "values": [{"measurement": "stability", "setting": "[2]", "result": "poor stability"}]}, {"compound": "DLGDISGINASVVNIQKEIDRLNEVAKNLNESLIDLQELGSGSGC(CH2COOChol)-NH2 [P3-2-GS-Chol-1]", "values": [{"measurement": "stability", "setting": "[2]", "result": "poor stability"}]}]}
